Each structure is given as a SMILES string.

This assay deals with T1, AKT1 (Homo sapiens, UniProt P31749).
T1 construct: purchased Upstate 14-276
T1 sequence (P31749 whole entry): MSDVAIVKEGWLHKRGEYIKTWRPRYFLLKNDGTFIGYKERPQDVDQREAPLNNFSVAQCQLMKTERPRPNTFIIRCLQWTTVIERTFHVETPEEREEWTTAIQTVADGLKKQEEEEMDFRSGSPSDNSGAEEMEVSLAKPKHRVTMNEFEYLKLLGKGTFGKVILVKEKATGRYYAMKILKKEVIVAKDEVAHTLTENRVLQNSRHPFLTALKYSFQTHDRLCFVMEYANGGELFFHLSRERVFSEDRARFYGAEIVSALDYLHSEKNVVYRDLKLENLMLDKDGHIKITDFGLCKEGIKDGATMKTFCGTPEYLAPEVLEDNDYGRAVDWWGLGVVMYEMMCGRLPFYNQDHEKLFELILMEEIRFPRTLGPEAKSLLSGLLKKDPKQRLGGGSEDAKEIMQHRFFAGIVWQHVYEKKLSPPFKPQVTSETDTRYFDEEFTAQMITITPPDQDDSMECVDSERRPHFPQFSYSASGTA
The assay can be described thus: HTS ATP-utilizing enzyme assay, off-chip mobility-shift (Caliper HTS 250). The class given is biochemical. Particulars: kinase named = inhibitory activity/selectivity; test compound 10 μM; active = greater than three-sigma from mean. The gist of the method: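 AKT1 activity was measured by off-chip mobility shift (Caliper HTS 250) as the ratio of peptide substrate to phosphorylated product. Test compound was at 10 μM, with 2.5 h incubation at 20–22° C. EDTA wells served as 100% control and DMSO wells as 0%. Hits were called at three-sigma limits.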
On to `O=C(c1ccco1)N(CCCN1CCOCC1)c1nc(-c2cc3ccccc3o2)cs1` [N-(4-(benzofuran-2-yl)thiazol-2-yl)-N-(3-morpholinopropyl)furan-2-carboxamide], for which the Activity entry is given as “AKT1”.
Next, `O=C(c1cccnc1)N(CCCN1CCOCC1)c1nc(-c2cc3ccccc3o2)cs1` [N-(4-(benzofuran-2-yl)thiazol-2-yl)-N-(3-morpholinopropyl)nicotinamide]: “AKT1”; `O=C(c1ccccn1)N(CCCN1CCOCC1)c1nc(-c2cc3ccccc3o2)cs1` [N-(4-(benzofuran-2-yl)thiazol-2-yl)-N-(3-morpholinopropyl)picolinamide]: “AKT1”; `O=C(c1cccs1)N(CCCN1CCOCC1)c1nc(-c2cc3ccccc3o2)cs1` [N-(4-(benzofuran-2-yl)thiazol-2-yl)-N-(3-morpholinopropyl)thiophene-2-carboxamide]: “AKT1”.
Next, `O=C(CCN(C(=O)c1cccs1)c1nc(-c2cc3ccccc3o2)cs1)NCCOc1ccccc1` [N-(4-(benzofuran-2-yl)thiazol-2-yl)-N-(3-oxo-3-(2-phenoxyethylamino)propyl)thiophene-2-carboxamide]: “AKT1”.
The result for `O=C1CN(C(=O)CCN(C(=O)c2cccs2)c2nc(-c3cc4ccccc4o3)cs2)CCN1` [N-(4-(benzofuran-2-yl)thiazol-2-yl)-N-(3-oxo-3-(3-oxopiperazin-1-yl)propyl)thiophene-2-carboxamide] reads “AKT1”; that for `O=C(CCN(C(=O)c1cccs1)c1nc(-c2cc3ccccc3o2)cs1)N1CCNCC1` [N-(4-(benzofuran-2-yl)thiazol-2-yl)-N-(3-oxo-3-(piperazin-1-yl)propyl)thiophene-2-carboxamide], “AKT1”.
Consider `O=C(CCN(C(=O)c1cccs1)c1nc(-c2cc3ccccc3o2)cs1)N1CCSC1` [N-(4-(benzofuran-2-yl)thiazol-2-yl)-N-(3-oxo-3-(thiazolidin-3-yl)propyl)thiophene-2-carboxamide], for which the Activity result is recorded as “AKT1”.
Next, `O=C(c1cccs1)N(CCCc1ccccc1)c1nc(-c2cc3ccccc3o2)cs1` [N-(4-(benzofuran-2-yl)thiazol-2-yl)-N-(3-phenylpropyl)thiophene-2-carboxamide]: “AKT1”; `CC(CO)NC(=O)CCCN(C(=O)c1cccs1)c1nc(-c2cc3ccccc3o2)cs1` (stereo not drawn) [N-(4-(benzofuran-2-yl)thiazol-2-yl)-N-(4-(1-hydroxypropan-2-ylamino)-4-oxobutyl)thiophene-2-carboxamide]: “AKT1”.
Regarding `C[S+]([O-])CCNC(=O)CCCN(C(=O)c1cccs1)c1nc(-c2cc3ccccc3o2)cs1` (stereo not drawn) [N-(4-(benzofuran-2-yl)thiazol-2-yl)-N-(4-(2-(methylsulfinyl)ethylamino)-4-oxobutyl)thiophene-2-carboxamide], the Activity entry was “AKT1”.
Next, `CN(C)CCN1CCN(C(=O)CCCN(C(=O)c2cccs2)c2nc(-c3cc4ccccc4o3)cs2)CC1` [N-(4-(benzofuran-2-yl)thiazol-2-yl)-N-(4-(4-(2-(dimethylamino)ethyl)piperazin-1-yl)-4-oxobutyl)thiophene-2-carboxamide]: “AKT1”.
Next, `CN(C)S(=O)(=O)N1CCN(C(=O)CCCN(C(=O)c2cccs2)c2nc(-c3cc4ccccc4o3)cs2)CC1` [N-(4-(benzofuran-2-yl)thiazol-2-yl)-N-(4-(4-(N,N-dimethylsulfamoyl)piperazin-1-yl)-4-oxobutyl)thiophene-2-carboxamide]: “AKT1”; `CCN(CC)C1CCN(C(=O)CCCN(C(=O)c2cccs2)c2nc(-c3cc4ccccc4o3)cs2)CC1` [N-(4-(benzofuran-2-yl)thiazol-2-yl)-N-(4-(4-(diethylamino)piperidin-1-yl)-4-oxobutyl)thiophene-2-carboxamide]: “AKT1”.
Next, `CS(=O)(=O)c1ccc2c(c1)CCN2C(=O)CCCN(C(=O)c1cccs1)c1nc(-c2cc3ccccc3o2)cs1` [N-(4-(benzofuran-2-yl)thiazol-2-yl)-N-(4-(5-(methylsulfonyl)indolin-1-yl)-4-oxobutyl)thiophene-2-carboxamide]: “AKT1”; `CN(CC(O)CO)C(=O)CCCN(C(=O)c1cccs1)c1nc(-c2cc3ccccc3o2)cs1` (stereo not drawn) [N-(4-(benzofuran-2-yl)thiazol-2-yl)-N-(4-((2,3-dihydroxypropyl)(methyl)amino)-4-oxobutyl)thiophene-2-carboxamide]: “AKT1”.
Regarding `N#CCCN(CC1CCCO1)C(=O)CCCN(C(=O)c1cccs1)c1nc(-c2cc3ccccc3o2)cs1` (stereo not drawn) [N-(4-(benzofuran-2-yl)thiazol-2-yl)-N-(4-((2-cyanoethyl)((tetrahydrofuran-2-yl)methyl)amino)-4-oxobutyl)thiophene-2-carboxamide], the Activity result is listed as “AKT1”.
Next, `O=C(CCCN(C(=O)c1cccs1)c1nc(-c2cc3ccccc3o2)cs1)N(CCO)c1ccccc1` [N-(4-(benzofuran-2-yl)thiazol-2-yl)-N-(4-((2-hydroxyethyl)(phenyl)amino)-4-oxobutyl)thiophene-2-carboxamide]: “AKT1”.
In the case of `O=C(CCCN(C(=O)c1cccs1)c1nc(-c2cc3ccccc3o2)cs1)N(CCO)Cc1ccncc1` [N-(4-(benzofuran-2-yl)thiazol-2-yl)-N-(4-((2-hydroxyethyl)(pyridin-4-ylmethyl)amino)-4-oxobutyl)thiophene-2-carboxamide], the Activity result was “AKT1”.
The result for `Cc1cnc(CNC(=O)CCCN(C(=O)c2cccs2)c2nc(-c3cc4ccccc4o3)cs2)cn1` [N-(4-(benzofuran-2-yl)thiazol-2-yl)-N-(4-((5-methylpyrazin-2-yl)methylamino)-4-oxobutyl)thiophene-2-carboxamide] reads “AKT1”.
Next, `O=C(c1cccs1)N(CCCC(=O)N(CCCCO)C1CCCCC1)c1nc(-c2cc3ccccc3o2)cs1` [N-(4-(benzofuran-2-yl)thiazol-2-yl)-N-(4-(cyclohexyl(4-hydroxybutyl)amino)-4-oxobutyl)thiophene-2-carboxamide]: “AKT1”; `O=C(CCCN(C(=O)c1cccs1)c1nc(-c2cc3ccccc3o2)cs1)N1Cc2ccccc2C1` [N-(4-(benzofuran-2-yl)thiazol-2-yl)-N-(4-(isoindolin-2-yl)-4-oxobutyl)thiophene-2-carboxamide]: “AKT1”.
The result for `O=C(c1cccs1)N(CCCCN1CCOCC1)c1nc(-c2cc3ccccc3o2)cs1` [N-(4-(benzofuran-2-yl)thiazol-2-yl)-N-(4-morpholinobutyl)thiophene-2-carboxamide] reads “AKT1”; that for `O=C(c1cccs1)N(CCCC(=O)N1CCCC1c1cccnc1)c1nc(-c2cc3ccccc3o2)cs1` (stereo not drawn) [N-(4-(benzofuran-2-yl)thiazol-2-yl)-N-(4-oxo-4-(2-(pyridin-3-yl)pyrrolidin-1-yl)butyl)thiophene-2-carboxamide], “AKT1”; that for `O=C(CCCN(C(=O)c1cccs1)c1nc(-c2cc3ccccc3o2)cs1)NCCc1ccncc1` [N-(4-(benzofuran-2-yl)thiazol-2-yl)-N-(4-oxo-4-(2-(pyridin-4-yl)ethylamino)butyl)thiophene-2-carboxamide], “AKT1”.
In the case of `O=C1CN(C(=O)CCCN(C(=O)c2cccs2)c2nc(-c3cc4ccccc4o3)cs2)CCN1` [N-(4-(benzofuran-2-yl)thiazol-2-yl)-N-(4-oxo-4-(3-oxopiperazin-1-yl)butyl)thiophene-2-carboxamide], the Activity entry was “AKT1”.
The result for `O=C(CCCN(C(=O)c1cccs1)c1nc(-c2cc3ccccc3o2)cs1)N1CCCCC1` [N-(4-(benzofuran-2-yl)thiazol-2-yl)-N-(4-oxo-4-(piperidin-1-yl)butyl)thiophene-2-carboxamide] reads “AKT1”; that for `O=C(CCCN(C(=O)c1cccs1)c1nc(-c2cc3ccccc3o2)cs1)NCc1ccccn1` [N-(4-(benzofuran-2-yl)thiazol-2-yl)-N-(4-oxo-4-(pyridin-2-ylmethylamino)butyl)thiophene-2-carboxamide], “AKT1”.
With `O=C(CCCN(C(=O)c1cccs1)c1nc(-c2cc3ccccc3o2)cs1)NCc1cccnc1` [N-(4-(benzofuran-2-yl)thiazol-2-yl)-N-(4-oxo-4-(pyridin-3-ylmethylamino)butyl)thiophene-2-carboxamide], the Activity result was “AKT1”.
The result for `O=C(CCCN(C(=O)c1cccs1)c1nc(-c2cc3ccccc3o2)cs1)N1CCSC1` [N-(4-(benzofuran-2-yl)thiazol-2-yl)-N-(4-oxo-4-(thiazolidin-3-yl)butyl)thiophene-2-carboxamide] reads “AKT1”.
Next, `O=C(c1cccs1)N(CCCCCN1CCOCC1)c1nc(-c2cc3ccccc3o2)cs1` [N-(4-(benzofuran-2-yl)thiazol-2-yl)-N-(5-morpholinopentyl)thiophene-2-carboxamide]: “AKT1”.
On to `CCCN(C(=O)c1cccs1)c1nc(-c2cc3ccccc3o2)cs1` [N-(4-(benzofuran-2-yl)thiazol-2-yl)-N-propylthiophene-2-carboxamide], for which the Activity result is on record as “AKT1”.
The result for `O=C(c1cccs1)N(CCCN1CCOCC1)c1nc(-c2coc3ccccc23)cs1` [N-(4-(benzofuran-3-yl)thiazol-2-yl)-N-(3-morpholinopropyl)thiophene-2-carboxamide] reads “AKT1”; that for `O=C(c1cccs1)N(CCCN1CCOCC1)c1nc(-c2ccc(-c3ccccc3)cc2)cs1` [N-(4-(biphenyl-4-yl)thiazol-2-yl)-N-(3-morpholinopropyl)thiophene-2-carboxamide], “AKT1”; that for `O=C(c1cccs1)N(CCCN1CCOCC1)c1nc(C2CCCCC2)cs1` [N-(4-cyclohexylthiazol-2-yl)-N-(3-morpholinopropyl)thiophene-2-carboxamide], “AKT1”.
On to `O=C(c1cccs1)N(CCCN1CCOCC1)c1nc(C2CCCC2)cs1` [N-(4-cyclopentylthiazol-2-yl)-N-(3-morpholinopropyl)thiophene-2-carboxamide], for which the Activity entry was “AKT1”.
